Target: T1, Human transferrin (htf) (Homo sapiens, UniProt P02787)
T1 construct: gene TF; commercial protein from Sigma Aldrich
Assay: intrinsic fluorescence quenching (excitation […] nm), modified Stern-Volmer plot
Format: binding
Conditions: 4 µM htf, 0-6 µM capsaicin; inner filter corrected; double-log

T1 sequence (P02787 20-698): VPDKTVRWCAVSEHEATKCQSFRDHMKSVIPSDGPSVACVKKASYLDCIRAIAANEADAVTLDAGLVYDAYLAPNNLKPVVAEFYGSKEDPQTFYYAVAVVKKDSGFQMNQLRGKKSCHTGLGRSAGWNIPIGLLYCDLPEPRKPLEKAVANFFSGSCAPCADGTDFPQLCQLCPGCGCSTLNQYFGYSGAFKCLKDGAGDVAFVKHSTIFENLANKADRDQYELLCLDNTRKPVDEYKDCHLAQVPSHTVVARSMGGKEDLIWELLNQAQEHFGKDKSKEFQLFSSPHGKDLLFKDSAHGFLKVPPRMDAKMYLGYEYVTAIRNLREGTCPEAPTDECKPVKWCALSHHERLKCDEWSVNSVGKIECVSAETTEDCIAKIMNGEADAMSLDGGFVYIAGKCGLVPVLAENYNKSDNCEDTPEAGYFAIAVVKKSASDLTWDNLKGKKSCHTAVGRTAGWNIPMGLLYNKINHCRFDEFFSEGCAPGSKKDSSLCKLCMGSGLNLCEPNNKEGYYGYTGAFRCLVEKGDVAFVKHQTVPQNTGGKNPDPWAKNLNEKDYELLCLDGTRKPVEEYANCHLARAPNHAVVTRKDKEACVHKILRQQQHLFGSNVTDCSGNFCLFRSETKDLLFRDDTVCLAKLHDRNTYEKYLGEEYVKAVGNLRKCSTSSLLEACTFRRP

Q: For `COc1cc(CNC(=O)CCCC/C=C/C(C)C)ccc1O` [capsaicin, 8-methyl-N-vanillyl-6-nonenamide], which K is on record?
A: Its K is 3.99e+06 M⁻¹.

Reference: PMC10943693, “Evaluation of binding mechanism of dietary phytochemical, capsaicin, with human transferrin: targeting neurodegenerative diseases therapeutics” (Frontiers in Pharmacology, 2024)
